Experiments:
[1] = system: NNC #2 (full-length replicon) cells; assay: Anti-HCV activity using full-length replicon cells (HCV genomic RNA, real-time RT-PCR); type: cell-based; conditions: for anti-HCV activity (in words): FIGS. 3 to 6; for EC50: HCV genomic RNA level, 3 days
Description: (§1) The 70% confluent #50-1 (subgenomic replion) cells or NNC #2 (full-length replicon) cells (Ishii et al., J. Virol., 2006, vol. 80, pp. 4510-4520) were dispersed in a culture bottle with the aid of trypsin, and the resulting dispersion was resuspended in a high-glucose Dulbecco's modified Eagle medium (DMEM) containing 10% FCS and 1 mg/ml G418 (Sigma) (see FIGS. 1 and 2). The cell suspension adjusted at 5×10^4 cells/ml with the use thereof was added to wells of a 96-well culture plate at 100 μl/well (the final cell density in each well: […]), and culture was conducted at 37° C. Supernatants of culture media were removed from wells of the plate on the following day, 200 μl each of the solutions of test compounds appropriately diluted with a G418-free culture solution were added, and culture was further continued. Samples were prepared from cells in each well 3 days later with the use of the TaqMan® Gene Expression Cell-to-CT® (Applied Biosystems). Reverse transcription was carried out in accordance with the protocols for the ABI 7500 PCR systems (Applied Biosystems) at 37° C. for 60 minutes, 95° C. for 5 minutes, and retained at 4° C. Real-time PCR was carried out in accordance with the protocols for the ABI 7500 real-time PCR systems (Applied Biosystems) at 50° C. for 2 minutes, 95° C. for 10 minutes, 40 cycles at 95° C. for 15 seconds, and 60° C. for 1 minute.
(§2) In accordance with the method mentioned above, the level of the HCV genomic RNA and, as the internal standard, the level of mRNA of glyceraldehyde-3-phosphate dehydrogenase (GAPDH) (a house keeping gene of the host cells) were assayed, and a percentage (%) relative to the level of RNA of a control group to which the test compound was not administered was determined. The dose-response relationship of the test compound was analyzed based on the measured level of the HCV genomic RNA to determine EC50, and the dose-response relationship of the test compound was analyzed based on the measured level of GAPDH RNA to determine CC50. The term “EC50” and “CC50” used herein refers to 50% effective concentration (μM) and 50% cytotoxic concentration (μM), respectively.

[2] = system: #50-1 (subgenomic replion) cells; assay: Cytotoxicity in subgenomic replicon cells (GAPDH mRNA, real-time RT-PCR); type: cell-based; conditions: GAPDH RNA level, 3 days
Description: as §1, §2

[3] = system: #50-1 (subgenomic replion) cells; assay: Anti-HCV activity using subgenomic replicon cells (HCV genomic RNA, real-time RT-PCR); type: cell-based; conditions: for EC50: HCV genomic RNA level, 3 days; for anti-HCV activity (in words): Table 1
Description: as §1, §2

[4] = system: NNC #2 (full-length replicon) cells; assay: Cytotoxicity in full-length replicon cells (GAPDH mRNA, real-time RT-PCR); type: cell-based; conditions: GAPDH RNA level, 3 days
Description: (§3) The 70% confluent #50-1 (subgenomic replion) cells or NNC #2 (full-length replicon) cells (Ishii et al., J. Virol., 2006, vol. 80, pp. 4510-4520) were dispersed in a culture bottle with the aid of trypsin, and the resulting dispersion was resuspended in a high-glucose Dulbecco's modified Eagle medium (DMEM) containing 10% FCS and 1 mg/ml G418 (Sigma) (see FIGS. 1 and 2). The cell suspension adjusted at 5×10^4 cells/ml with the use thereof was added to wells of a 96-well culture plate at 100 μl/well (the final cell density in each well: […]), and culture was conducted at 37° C. […]
(§4) In accordance with the method mentioned above, the level of the HCV genomic RNA and, as the internal standard, the level of mRNA of glyceraldehyde-3-phosphate dehydrogenase (GAPDH) (a house keeping gene of the host cells) were assayed, and a percentage (%) relative to the level of RNA of a control group to which the test compound was not administered was determined. The dose-response relationship of the test compound was analyzed based on the measured level of the HCV genomic RNA to determine EC50, and the dose-response relationship of the test compound was analyzed based on the measured level of GAPDH RNA to determine CC50. […]

[5] = Cytotoxicity (cell survival rate) by tetrazolium staining in luciferase replicon cells; type: cell-based; conditions: human, subgenomic HCV RNA replicon cells (LucNeo#2), LucNeo#2 subgenomic replicon cells
Description: A tetrazolium staining solution (10 μl, Seikagaku Corporation, Tokyo) was added to each well in order to examine cytotoxicity (a cell survival rate). After the cells were incubated for 1 hour, the absorbance at the characteristic absorption wavelength (450 nm) was measured with the use of a microplate reader.
(§5) Based on the luciferase assay results, the HCV genomic RNA level was measured, and a percentage (%) relative to the level of RNA of a control group to which the test compound was not administered was determined. Based on the results of tetrazolium staining, cell survival rates (%) of the group to which the test compound had been administered and of a control group were determined. The dose-response relationship of the test compound was analyzed based on the results of quantitative luciferase assays to determine EC50(μM), and the dose-response relationship of the test compound was analyzed based on the results of tetrazolium staining to determine CC50.

[6] = system: Subgenomic HCV RNA replicon cells (LucNeo#2) having a luciferase gene; assay: Anti-HCV activity using replicon cells (luciferase assay); type: cell-based; conditions: Hepatitis C virus, 72 h
Description: Subgenomic HCV RNA replicon cells (LucNeo#2, Goto et al., Biochem. Biophys. Res. Commun., 2006, vol. 343, pp. 879-884) having a luciferase gene were suspended in a Dulbecco's modified Eagle medium (DMEM) containing 10% FBS and 1 mg/ml G418 (Sigma). The cells were incubated for 24 hours and then cultured in G418-free fresh media each containing test compounds at various concentrations for 3 days. In order to perform luciferase assays, the cells were washed with PBS and treated with a lysate for 10 minutes with intermittent agitation. A cell lysate (25 μl) was transferred to a white microtiter plate. Luciferase assay reagents (100 μl, Promega, Tokyo) were added to each well and the luciferase activity was measured with a luminometer.
as §5

[7] = Cytotoxicity in subgenomic replicon cells (GAPDH mRNA, real-time RT-PCR); type: cell-based; conditions: human, #50-1 (subgenomic HCV replicon) cells, GAPDH RNA level
Description: as §1, §2

[8] = Cytotoxicity in full-length replicon cells (GAPDH mRNA, real-time RT-PCR); type: cell-based; conditions: human, NNC #2 (full-length HCV replicon) cells, GAPDH RNA level
Description: as §3, §4

[9] = system: HCV replicon cells; conditions: inhibiting the replication of the HCV genome, Non-Patent Document 8; cited from earlier work

Compound: CCCCn1c(=O)c2ccccc2c2cc(C(O)(C(F)(F)F)C(F)(F)F)ccc21 [AA-24, 2-(1′,1′,1′,3′,3′,3′-hexafluoro-2′-hydroxypropan-2′-yl)-5-butyl-phenanthridin-6(5H)-one]
- anti-HCV activity (in words) [1]: high degree of anti-HCV activity
- EC50 [1]: 2.8 µM
- CC50 [2]: 20.5 µM
- EC50 [3]: 4 µM
- CC50 [4]: 11.9 µM

Compound: O=c1c2ccccc2c2cc(C(O)(C(F)(F)F)C(F)(F)F)ccc2n1CC1CCCCC1 [AA-26, 2-(1′,1′,1′,3′,3′,3′-hexafluoro-2′-hydroxypropan-2′-yl)-5-cyclohexylmethyl-phenanthridin-6(5H)-one]
- anti-HCV activity (in words) [1]: high degree of anti-HCV activity

Compound: CCCCn1c(=O)c2ccccc2c2c(OC)c(C(O)(C(F)(F)F)C(F)(F)F)ccc21 [KZ34, 5-butyl-2-(1′,1′,1′,3′,3′,3′-hexafluoro-2′-hydroxypropan-2-yl)-1-methoxy-phenanthridin-6(5H)-one]
- CC50 at 3 days [5]: 25.3 µM
- EC50 [6]: 7.2 µM

Compound: CCCCn1c(=O)c2ccccc2c2cc3c(cc21)C(C)(C)CCC3(C)C [MN256, 6-butyl-8,9,10,11-tetrahydro-8,8,11,11-tetramethylbenzo[2,3-b]phenanthridin-5(6H)-one]
- CC50 at 3 days [7]: 31.7 µM
- EC50 ([3]; Hepatitis C virus, 72 h): 5 µM

Compound: CCCCn1c(=O)c2ccccc2c2ccc3ccccc3c21 [MN305, 5-butylbenzo[c]phenanthridin-6(5H)-one]
- CC50 [2]: 24.3 µM
- EC50 ([3]; Hepatitis C virus, 72 h): 19.5 µM

Compound: CCCCn1c(=O)c2c3ccccc3ccc2c2ccccc21 [MN306, 6-butylbenzo[i]phenanthridin-5(6H)-one]
- CC50 at 3 days [7]: > 40 µM
- EC50 ([3]; Hepatitis C virus, 72 h): 29.9 µM
- anti-HCV activity (in words) [3]: very high degree of anti-HCV activity at non-cytotoxic concentrations

Compound: CCCCn1c(=O)c2ccccc2c2c3ccccc3ccc21 [MN313-A, 6-butylbenzo[a]phenanthridin-5(6H)-one]
- CC50 [2]: 44.5 µM
- EC50 ([3]; Hepatitis C virus, 72 h): 29.1 µM
- anti-HCV activity (in words) [3]: very high degree of anti-HCV activity at non-cytotoxic concentrations

Compound: CCCCn1c(=O)c2ccccc2c2cc3ccccc3cc21 [MN313-B, 6-butylbenzo[b]phenanthridin-5(6H)-one]
- CC50 at 3 days [7]: 6.3 µM
- EC50 ([3]; Hepatitis C virus, 72 h): 3.2 µM
- anti-HCV activity (in words) [3]: very high degree of anti-HCV activity at non-cytotoxic concentrations

Compound: CCCCn1c(=O)c2ccc3ccccc3c2c2ccccc21 [MN314-A, 5-butylbenzo[k]phenanthridin-6(5H)-one]
- CC50 [2]: 31.4 µM
- EC50 ([3]; Hepatitis C virus, 72 h): > 31.4 µM

Compound: CCCCn1c(=O)c2cc3ccccc3cc2c2ccccc21 [MN314-B, 5-butylbenzo[j]phenanthridin-6(5H)-one]
- CC50 [2]: > 40 µM
- CC50 at 3 days [7]: 33.5 µM
- anti-HCV activity (in words) [3]: very high degree of anti-HCV activity at non-cytotoxic concentrations

Compound: CCCCn1c(=O)c2ccccc2c2cc(C(C)(C)C)ccc21 [MN325, 5-butyl-2-tert-butylphenanthridin-6(5H)-one]
- CC50 at 3 days [7]: 34.4 µM
- EC50 ([3]; Hepatitis C virus, 72 h): 6.1 µM

Compound: CCCCn1c(=O)c2ccccc2c2cc(C(C)C)ccc21 [PN-iPr, 5-butyl-2-isopropylphenanthridin-6(5H)-one]
- EC50 ([1]; Hepatitis C virus, NNC2, 72 h): 16.4 µM
- CC50 at 3 days [7]: 20.5 µM
- EC50 ([3]; Hepatitis C virus, 72 h): 4 µM
- CC50 at 3 days [8]: 27.7 µM

Compound: COc1cc(NC(=O)Nc2cccc(CNC(=O)O[C@H]3CCOC3)c2)ccc1-c1cnco1 [VX497]
- IC50 [9]: 0.5 µM

From patent publication US20120316342A1, “THERAPEUTIC AGENT FOR HEPATITIS C” (priority 2010, published 2012)
